Experimental data reported in patent US20210283213A1, “CRYSTAL OF POLYMYXIN B1 SULFATE, POLYMYXIN B2 SULFATE OR THEIR MIXTURE AND PREPARATION METHOD THEREOF” (Hubei Ruihaoanke Pharmaceutical Technology Development Co., …, priority 2016, published 2021).

Legend:
Type in all cases: physicochemical
[1] = Stability evaluation of crystal form in a dry state at room temperature; conditions: placed in a dry state at room temperature for 3 days
[2] = TGA (thermogravimetric analysis)
[3] = DVS (dynamic moisture adsorption analysis); conditions: 0% RH-80% RH
[4] = Hot stage XRD
[5] = Crystal mush experiment at room temperature; conditions: in ethanol and in a mixed solvent of ethanol/water at room temperature
Experimental: (§1) A competitive experiment between crystal form 1 and crystal form A of polymyxin sulfate was carried out to investigate crystal form stability of the two crystal forms in the solvent, water and ethanol, which are commonly used in the preparation, and to evaluate the conversion of the two crystal forms, in order to provide reference for subsequent preparation operations such as granulation.

[6] = Crystal form competitive experiment; conditions: in ethanol and in a mixed solvent of ethanol/water at room temperature
Experimental: as §1
1. Equal amounts of samples of crystal form 1 and form A were taken and mixed uniformly to obtain an initial mixed sample, which was used for XRD detection (FIG. 14).
2. The uniformly-mixed sample was divided into two portions, to one of which was added 200 μL ethanol, and to another of which was added 300 μL mixed solvent of ethanol/water=5/1 (v/v), to form a suspension. The suspension was stirred at room temperature, and centrifuged and sampled at different times for XRD detection.

hygroscopicity [3] | most stable crystal form (crystal mush experiment) [5] | most stable crystal form (competitive experiment) [6] | Substance | Stability evaluation [1] | decomposition temperature [2] | crystal form change on heating [4]
extremely strong hygroscopicity. |  |  | polymyxin B1 sulfate [crystal form 1] | Unstable, the crystal form changed to crystal form A when placed | XRD, and the decomposition temperature was 222 °C | The crystal form has not changed when heating up to 170 °C
extremely strong hygroscopicity. | most stable crystal form | most stable crystal form | polymyxin B1 sulfate [crystal form A] |  | with hot stage XRD, and the decomposition temperature was 213 °C | 
